According to PMC3121759 (PLoS ONE, 2011):

Assays:
Serotonin 5-HT2A = experiment: Radioligand binding, [3H]Ketanserin; details: duplicate
Description: (§1) Table S1. Inhibition effect of CHIBA-3007 (1 µM) on radioligand binding to various receptors
(§2) Test substance concentration: 1 µM, Positive substance concentration : 10 µM
(§3) Data are expressed as the mean values of duplicate samples.
(§4) The % inhibition was calculated from “100 – binding ratio”.
(§5) Binding ratio: [(B - N) / (B0 - N)] × 100 (%) B: Bound radioactivity in the presence of test substance and positive substance (individual value), B0: Total bound radioactivity in the absence of test substance and positive substance (mean value), N: Non-specific bound radioactivity (mean value)

[1] = tested on: Glutamate (NMDA glycine site); experiment: Radioligand binding, [3H]MDL105519; details: [3H]MDL105519, 1 µM, duplicate
Description: as §1, §2, §3, §4, §5

[2] = tested on: Glutamate (NMDA phencyclidine site); experiment: Radioligand binding, [3H]MK-801; details: [3H]MK-801, 1 µM, duplicate
Description: as §1, §2, §3, §4, §5

GlyT-1 [3] = target: T1, GlyT-1 (Rattus norvegicus, UniProt P28572); experiment: Inhibition of [14C]glycine uptake in rat brain membranes; type: biochemical
T1 construct: the tissues of whole brains or each specific brain region were homogenized; from tissue; host or cells: rat brain (whole brain or dissected regions; male Crl:CD (SD) rats)
T1 sequence (P28572 1-638): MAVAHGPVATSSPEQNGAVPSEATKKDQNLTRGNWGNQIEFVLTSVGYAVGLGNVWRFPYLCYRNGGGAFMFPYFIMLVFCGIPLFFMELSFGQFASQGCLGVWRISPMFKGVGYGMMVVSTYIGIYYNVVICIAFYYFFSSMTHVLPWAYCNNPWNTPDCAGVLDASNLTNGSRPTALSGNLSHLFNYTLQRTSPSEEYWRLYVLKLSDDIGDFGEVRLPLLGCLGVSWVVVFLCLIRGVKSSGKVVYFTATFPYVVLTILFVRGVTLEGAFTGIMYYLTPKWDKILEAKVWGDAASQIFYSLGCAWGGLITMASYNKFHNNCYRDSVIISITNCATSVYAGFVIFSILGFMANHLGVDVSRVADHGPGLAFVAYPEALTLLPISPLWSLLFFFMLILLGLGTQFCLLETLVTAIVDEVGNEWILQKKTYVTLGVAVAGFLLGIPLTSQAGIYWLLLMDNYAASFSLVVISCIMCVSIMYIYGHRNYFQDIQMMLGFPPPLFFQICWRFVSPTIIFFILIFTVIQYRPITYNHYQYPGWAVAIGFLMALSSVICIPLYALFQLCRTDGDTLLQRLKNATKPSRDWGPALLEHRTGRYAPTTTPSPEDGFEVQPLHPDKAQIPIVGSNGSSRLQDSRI
Description: The homogenate was centrifuged at 1,000 g for 10 min to remove nuclei and debris, and then the supernatant was centrifuged again at 20,000 g for 20 min (synaptosomal P2 fraction). The pellet was washed and re-suspended in ice-cold 0.32 M sucrose, buffered with 10 mM HEPES (pH 7.4) and centrifuged again at 20,000 g for 20 min (washed P2 fraction). The pellet was re-suspended in 10 volumes of assay buffer with the following composition: 10 mM HEPES buffer (pH 7.4) containing 140 mM NaCl, 5.5 mM KCl, 1.8 mM CaCl2, 0.8 mM MgSO4, 5 mM glucose and 5 mM L-alanine (HB). The protein concentrations were measured by using a DC protein assay kit (Bio-Rad Laboratories Inc., Tokyo, Japan).
Non-specific uptake was estimated in the presence of 30 µM SSR504734. […] The filters were washed by buffer, and the radioactivity trapped by the filters was determined using a liquid scintillation counter as described above.
(§6) The data are shown as the mean ± standard error of the mean (S.E.M.). The dissociation constant (Kd) and maximal binding (Bmax) values from saturation binding and the IC50 values from binding displacement by each drug were determined using the program GraphPad Prism (GraphPad Software, San Diego, CA). […] Correlation was analyzed by Pearson's Correlation Coefficient (PASW Statistics 19, Tokyo, Japan). Significance was set at p<0.05.

Sigma (Non-selective) = experiment: Radioligand binding, [3H]DTG; details: duplicate
Description: as §1, §2, §3, §4, §5

Nicotinic Ni = experiment: Radioligand binding, [3H]Nicotine; details: duplicate
Description: as §1, §2, §3, §4, §5

Serotonin 5-HT3 (Human) = experiment: Radioligand binding, [3H]GR65630; details: [3H]GR65630, 1 µM, duplicate
Description: as §1, §2, §3, §4, §5

Opiate (Non-selective) = experiment: Radioligand binding, [3H]Naloxone; details: duplicate
Description: as §1, §2, §3, §4, §5

[4] = 28 standard target binding profile; details: 1 µM
Description: as §1, §2, §3, §4, §5

Glutamate (Kainate) = experiment: Radioligand binding, [3H]Kainic acid; details: duplicate
Description: as §1, §2, §3, §4, §5

Glutamate (AMPA) = experiment: Radioligand binding, [3H]AMPA; details: duplicate
Description: as §1, §2, §3, §4, §5

Serotonin 5-HT1A = experiment: Radioligand binding, [3H]8-OH DPAT; details: duplicate
Description: as §1, §2, §3, §4, §5

GlyT-1 [5] = target: T1, GlyT-1; experiment: Drug inhibition of [3H]CHIBA-3007 binding to rat brain membranes; details: [3H]CHIBA-3007 (1 nM), 120 min room temperature, mean ± S.E.M., n=3
Description: The supernatant was discarded and the pellet was re-suspended, homogenized and centrifuged as above. The membrane pellet was washed and re-suspended in ice-cold HEPES buffer and was then centrifuged three times. The final pellet was re-suspended in 15 volumes of the buffer (120 mM NaCl, 2 mM KCl, 1 mM CaCl2, 1 mM MgCl2 10 mM HEPES, pH 7.5 at room temperature).
The binding reaction was terminated by rapid vacuum filtration onto Whatman GF/B glass filters pretreated with 0.5% polyethyleneimine (Sigma-Aldrich Co.) using a 24-channel cell harvester (Brandell, Gaithersburg, MD). The filters were washed with 5 mL of ice-cold assay buffer 3 times, and placed in vials with 4 mL scintillation cocktail. The radioactivity trapped by the filters was determined using a liquid scintillation counter (Beckman LS-6500; Beckman Coulter K.K., Tokyo, Japan).
as §6

Adenosine A2 = experiment: Radioligand binding, [3H]CGS21680; details: Adenosine A2, [3H]CGS21680, 1 µM, duplicate
Description: as §1, §2, §3, §4, §5

[6] = tested on: α2-Adrenergic (Non-selective); experiment: Radioligand binding, [3H]RX821002; details: [3H]RX821002, 1 µM, duplicate
Description: as §1, §2, §3, §4, §5

[7] = tested on: Glutamate (NMDA agonist site); experiment: Radioligand binding, [3H]CGP-39653; details: [3H]CGP-39653, 1 µM, duplicate
Description: as §1, §2, §3, §4, §5

[8] = tested on: Glutamate (Non-selective); experiment: Radioligand binding, [3H]Glutamic acid; details: duplicate
Description: as §1, §2, §3, §4, §5

Adenosine A1 = experiment: Radioligand binding, [3H]DPCPX; details: Adenosine A1, [3H]DPCPX, duplicate
Description: as §1, §2, §3, §4, §5

GABA- A (BZ central) = experiment: Radioligand binding, [3H]Flunitrazepam; details: duplicate
Description: as §1, §2, §3, §4, §5

[9] = tested on: β-Adrenergic (Non-selective); experiment: Radioligand binding, [3H]DHA; details: duplicate
Description: as §1, §2, §3, §4, §5

Muscarinic M2 = experiment: Radioligand binding, [3H]AF-DX-384; details: Muscarinic M2, [3H]AF-DX-384, 1 µM, duplicate
Description: as §1, §2, §3, §4, §5

Histamine H1 (Central) = experiment: Radioligand binding, [3H]Pyrilamine; details: duplicate
Description: as §1, §2, §3, §4, §5

GABA -B = experiment: Radioligand binding, [3H]GABA; details: duplicate
Description: as §1, §2, §3, §4, §5

Histamine H2 = experiment: Radioligand binding, [3H]Cimetidine; details: Histamine H2, [3H]Cimetidine, duplicate
Description: as §1, §2, §3, §4, §5

Histamine H3 = experiment: Radioligand binding, [3H]N-methyl histamine; details: Histamine H3, [3H]N-methyl histamine, duplicate
Description: as §1, §2, §3, §4, §5

[10] = tested on: α1-Adrenergic (Non-selective); experiment: Radioligand binding, [3H]Prazosin; details: duplicate
Description: as §1, §2, §3, §4, §5

GABA -A (Agonist site) = experiment: Radioligand binding, [3H]Muscimol; details: duplicate
Description: as §1, §2, §3, §4, §5

Muscarinic M1 = experiment: Radioligand binding, [3H]Pirenzepine; details: Muscarinic M1, [3H]Pirenzepine, duplicate
Description: as §1, §2, §3, §4, §5

Dopamine D1 = experiment: Radioligand binding, [3H]SCH23390; details: Dopamine D1, [3H]SCH23390, 1 µM, duplicate
Description: as §1, §2, §3, §4, §5

[11] = tested on: Glycine (Strychnine sensitive); experiment: Radioligand binding, [3H]Strychnine; details: duplicate
Description: as §1, §2, §3, §4, §5

Dopamine D2 = experiment: Radioligand binding, [3H]Spiperone; details: Dopamine D2, [3H]Spiperone, duplicate
Description: as §1, §2, §3, §4, §5

What does the source list for `CN1CCCC[C@@H]1[C@@H](NC(=O)c1nccc(C(F)(F)F)c1Cl)c1ccsc1` [CHIBA-3007, 3-Chloro-N-((S)-((R)-1-methylpiperidin-2-yl)(thiophen-3-yl)methyl)-4-(trifluoromethyl)picolinamide]?
% Inhibition (1 µM) (Serotonin 5-HT2A): 30.56%; % Inhibition (1 µM) [1]: 4.02%; % Inhibition (1 µM) [2]: 3.80%; IC50 (GlyT-1 [3]): 21.4 ± 8.4 nM; % Inhibition (1 µM) (Sigma (Non-selective)): 24.20%; % Inhibition (1 µM) (Nicotinic Ni): 2.10%; % Inhibition (1 µM) (Serotonin 5-HT3 (Human)): 7.36%; % Inhibition (1 µM) (Opiate (Non-selective)): 43.44%; Inhibition in 28 standard target binding profile [4]: lower than 50%; % Inhibition (1 µM) (Glutamate (Kainate)): 1.50%; % Inhibition (1 µM) (Glutamate (AMPA)): 3.27%; % Inhibition (1 µM) (Serotonin 5-HT1A): 35.22%; Ki (GlyT-1 [5]): 2.8 ± 0.17 nM; % Inhibition (1 µM) (Adenosine A2): 5.86%; % Inhibition (1 µM) [6]: 20.98%; % Inhibition (1 µM) [7]: 8.17%; % Inhibition (1 µM) [8]: 1.91%; % Inhibition (1 µM) (Adenosine A1): 2.12%; % Inhibition (1 µM) (GABA- A (BZ central)): 2.78%; % Inhibition (1 µM) [9]: 8.39%; % Inhibition (1 µM) (Muscarinic M2): 16.31%; % Inhibition (1 µM) (Histamine H1 (Central)): 1.83%; % Inhibition (1 µM) (GABA -B): 8.19%; % Inhibition (1 µM) (Histamine H2): 3.80%; % Inhibition (1 µM) (Histamine H3): 0.00%; % Inhibition (1 µM) [10]: 1.13%; % Inhibition (1 µM) (GABA -A (Agonist site)): 0.20%; % Inhibition (1 µM) (Muscarinic M1): 8.35%; % Inhibition (1 µM) (Dopamine D1): 2.32%; % Inhibition (1 µM) [11]: 0.00%; % Inhibition (1 µM) (Dopamine D2): 1.00%
